Assay results from US7700621B2, “6-alkenyl-, 6-alkinyl- and 6-epoxy-epothilone derivatives, process for their production, and their use in pharmaceutical preparations” (Bayer Schering Pharma Aktiengesellschaft, priority 1999, dated 2010).

Test system: multi-drug-resistant NCl/ADR-carcinoma cell line
Assay: Growth inhibition of multi-drug-resistant NCl/ADR carcinoma cell line, crystal-violet assay
Format: cell-based, human
Settings: ratio of IC50 NCl/ADR to IC50 MCF-7
Text: In Vitro Activity of Epothilone Derivatives on Human Tumor Cell Lines
a) IC50 values [nM] for the growth inhibition of human MCF-7-breast and multi-drug-resistant NCl/ADR-carcinoma cell lines of epothilone derivatives with 13Z-unsaturated in the crystal-violet assay in comparison to Taxol.
b) IC50 values [nM] for the growth inhibition of human MCF-7-breast- and multi-drug-resistant NCl/ADR carcinoma cell lines of epothilone derivative with 13,14-α-epoxide, which was formed from the 13-Z-configured double bond in the crystal-violet assay in comparison to Taxol.
c) IC50 values [nM] for the growth inhibition of human MCF-7-breast- and multi-drug-resistant NCl/ADR-carcinoma cell lines of epothilone derivatives with 13,14-epoxide, which was formed from the 13-E-configured double bond, in a crystal-violet assay in comparison to Taxol.

SMILES	Selectivity = IC50 (NCl/ADR) : IC50 (MCF-7)
C#CCC[C@H]1C(=O)C(C)(C)[C@@H](O)CC(=O)O[C@H](/C(C)=C/c2ccccn2)C/C=C(/C)CCC[C@H](C)[C@@H]1O [Example 1, (4S,7R,8S,9S,13Z,16S(E))-4,8-Dihydroxy-16-(1-methyl-2-(2-pyridyl)ethenyl)-1-oxa-5,9,13-tetramethyl-7-(but-3-in-1-yl)-cyclohexadec-13-ene-2,6-dione]	2.5
C=CCC[C@H]1C(=O)C(C)(C)[C@@H](O)CC(=O)O[C@H](/C(C)=C/c2ccccn2)C[C@@H]2O[C@]2(C)CCC[C@H](C)[C@@H]1O [Example 5A, (1S,3S(E),7S,10R,11S,12S,16R)-7,11-Dihydroxy-10-(but-3-en-1-yl)-3-(1-methyl-2-(2-pyridyl)ethenyl)-8,8,12,16-tetramethyl-4,17-dioxabicyclo[14.1.0]heptadecane-5,9-dione]	1.2
C=CC[C@H]1C(=O)C(C)(C)[C@@H](O)CC(=O)O[C@H](/C(C)=C/c2csc(C)n2)C/C=C(/C)CCC[C@H](C)[C@@H]1O [Example 9, (4S,7R,8S,9S,13Z,16S(E))-4,8-Dihydroxy-16-(1-methyl-2-(2-methylthiazol-4-yl)ethenyl)-1-oxa-5,5,9,13-tetramethyl-7-(prop-2-en-1-yl)-cyclohexadec-13-ene-2,6-dione]	2.4
C=CC[C@H]1C(=O)C(C)(C)[C@@H](O)CC(=O)O[C@H](/C(C)=C/c2csc(C)n2)C[C@@H]2O[C@]2(C)CCC[C@H](C)[C@@H]1O [Example 10A, (1S,3S(E),7S,10R,11S,12S,16R)-7,11-Dihydroxy-10-(prop-2-en-1-yl)-3-(1-methyl-2-(2-methylthiazol-4-yl)ethenyl)-8,8,12,16-tetramethyl-4,17-dioxabicyclo[14.1.0]heptadecane-5,9-dione]	3.0
C#CC[C@H]1C(=O)C(C)(C)[C@@H](O)CC(=O)O[C@H](/C(F)=C/c2csc(C)n2)C/C=C(/C)CCC[C@H](C)[C@@H]1O [Example 23, (4S,7R,8S,9S,13Z,16S(Z))-4,8-Dihydroxy-16-(1-fluoro-2-(2-methylthiazol-4-yl)ethenyl)-7-(prop-2-in-1-yl)-1-oxa-5,5,9,13-tetramethyl-cyclohexadec-13-ene-2,6-dione]	5.6
C#CC[C@H]1C(=O)C(C)(C)[C@@H](O)CC(=O)O[C@H](/C(F)=C/c2csc(C)n2)C[C@@H]2O[C@]2(C)CCC[C@H](C)[C@@H]1O [Example 25, (1S,3S(Z),7S,10R,11S,12S,16R)-7,11-Dihydroxy-3-(1-fluoro-2-(2-methyl-4-thiazolyl)ethenyl)-10-(prop-2-in-1-yl)-8,8,12,16-tetramethyl-4,17-dioxabicyclo[14.1.0]heptadecane-5,9-dione]	4.8
C#CC[C@H]1C(=O)C(C)(C)[C@@H](O)CC(=O)O[C@H](/C(F)=C/c2csc(C)n2)C[C@@H]2O[C@@]2(C)CCC[C@H](C)[C@@H]1O [Example 26A or B]	3.3

Now from value to compound:

Selectivity = IC50 (NCl/ADR) : IC50 (MCF-7)	SMILES
2.8	C=CCC[C@H]1C(=O)C(C)(C)[C@@H](O)CC(=O)O[C@H](/C(C)=C/c2ccccn2)C/C=C(/C)CCC[C@H](C)[C@@H]1O [Example 2, (4S,7R,8S,9S,13Z,16S(E))-4,8-Dihydroxy-16-(1-methyl-2-(2-pyridyl)ethenyl)-1-oxa-5,5,9,13-tetramethyl-7-(but-3-en-1-yl)-cyclohexadec-13-ene-2,6-dione]
7.0	C#CCC[C@H]1C(=O)C(C)(C)[C@@H](O)CC(=O)O[C@H](/C(C)=C/c2ccccn2)C[C@@H]2O[C@]2(C)CCC[C@H](C)[C@@H]1O [Example 4A, (1S,3S(E),7S,10R,11S,12S,16R)-7,11-Dihydroxy-10-(but-3-in-1-yl)-3-(1-methyl-2-(2-pyridyl)ethenyl)-8,8,12,16-tetramethyl-4,17-dioxabicyclo[14.1.0]heptadecane-5,9-dione]
1.5	C=CC[C@H]1C(=O)C(C)(C)[C@@H](O)CC(=O)O[C@H](/C(C)=C/c2csc(C)n2)C[C@H]2O[C@]2(C)CCC[C@H](C)[C@@H]1O [Example 12A or B]
1.6	C#CC[C@H]1C(=O)C(C)(C)[C@@H](O)CC(=O)O[C@H](/C(F)=C/c2coc(C)n2)C/C=C(/C)CCC[C@H](C)[C@@H]1O [Example 27, (4S,7R,8S,9S,13Z,16S(Z))-4,8-Dihydroxy-16-(1-fluoro-2-(2-methyloxazol-4-yl)ethenyl)-7-(prop-2-in-1-yl)-1-oxa-5,5,9,13-tetramethyl-cyclohexadec-13-ene-2,6-dione]

Same assay, conditions: statement in words, compared with Taxol

SMILES	action on the multi-drug-resistant cell line NCl/ADR
CC(=O)O[C@H]1C(=O)[C@@]2(C)[C@H]([C@H](OC(=O)c3ccccc3)[C@]3(O)C[C@H](OC(=O)[C@H](O)[C@@H](NC(=O)c4ccccc4)c4ccccc4)C(C)=C1C3(C)C)[C@]1(OC(C)=O)CO[C@@H]1C[C@@H]2O [Taxol, reference compound]	not exhibited
